Data from patent US8618138B2, “Indole amide derivatives and related compounds for use in the treatment of neurodegenerative diseases” (Katholieke Universiteit Leuven, K.U. Leuven R&D, priority 2009, dated 2013).

Assays:
M17-TAU P301L cells = experiment: TAU cytotoxicity assay: LDH leakage of retinoic acid incubated M17-TAU P301L cells; assay type: cell-based, human; settings: Homo sapiens, 168 h, reduction of LDH activity of retinoic acid incubated M17-TAU P301L cells, 7 days
Procedure, shortened: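 M17 neuroblastoma cells stably expressing human TAU P301L, seeded at 2500 cells/cm2 in Optimem with 1% FCS, then given 2.5 μM retinoic acid (stock before 1:1 addition) and grown 7 days at 37 °C. Cytotoxicity read as LDH leaked into medium; EC50 derived from these measurements.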

[1] = test system: TAU and phospho-isoforms thereof; experiment: In-vivo inhibition of pathological TAU-phosphorylation, Western analysis of soluble brain protein fractions; set-up: species or system Human TAU R406W transgenic mice
Source text: Quantification of Western analyses of TAU and phospho-TAU species of the soluble protein fraction prepared from […] of all individual mice used in this study (n=10 for each treatment group). TAU signals of all individual mice were normalized against neuron specific enolase (NSE) using antibodies (monoclonal anti-NSE antibody, clone 37E4, Abcam) to correct for possible loading control differences. The graphs depict the mean normalised TAU signals±SEM. The TAU signals were obtained by using antibodies directed against:
(A) pan-TAU (anti-TAU monoclonal antibody (mAb) HT7, Thermo Scientific; detects all tau species independent of phosphorylation status),
(B) phosphorylated tau on pS202, T205 (AD2 anti-TAU antibody, Biorad) and unphosphorylated tau on pS202 (anti-TAU-1 antibody, clone PC1C6, Millipore), the graph depicts the ratio of AD2/TAU-1;
(C) phosphorylated tau on pT231 (AT180 anti-TAU mAb, Thermo Scientific), and
(D) phosphorylated tau on pT181 (AT270 anti-TAU mAb, Thermo Scientific).
Statistics: students two-tailed T-test*p<0.05, **p<0.01.
Human TAU R406W transgenic mice (Zhang et al, J. of Neuroscience 24(19):4657-4667, 2004) were treated once-a-day subcutaneously for 4 weeks with compound D5 (see table 1) dissolved in arachidin oil at a dose of 35 mg/kg. Correspondingly vehicle treated transgenics were included as controls. At the end of the treatment period mice were sacrificed and brainstem was stereotactically collected. Soluble protein fractions were prepared (Terwel et al, J Biol Chem 280(5):3963-73, 2005) from the brain stem and subjected to Western analysis using antibodies directed against TAU and several different phospho-isoforms thereof.

[2] = TAU R406W transgenic mice, 35 mg/kg subcutaneously once-a-day for 4 weeks, vs vehicle, Western blot of soluble protein fraction

O=C(NCCc1c[nH]c2ccc(Cl)cc12)c1cc(Cc2cc(F)ccc2F)on1 [Example D5, N-(2-(5-chloro-1H-indol-3-yl)ethyl)-5-(2,5-difluorobenzyl)isoxazole-3-carboxamide]
EC50 (M17-TAU P301L cells): 12 nM | Phosphorylation of threonine residue 181 of TAU (AT270, FIG. 3 D) [1, 2]: not affected | TAU phosphorylated at serine 202 and tyrosine 205 (ratio AD2/TAU-1, FIG. 3 B) [1, 2]: robust and statistically significant reduction | TAU phosphorylated at tyrosine residue 231 (AT180, FIG. 3 C) [1, 2]: robust and statistically significant reduction | total TAU levels (pan-TAU, HT7 antibody, FIG. 3 A) [1, 2]: not statistically significant affected | pathological TAU-species in-vivo (FIG. 3 legend) ([1]; Western analyses of TAU and phospho-TAU species, soluble protein fraction, n=10 per group): reduces pathological TAU-species in-vivo
